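A five-concentration, 48-hour dose response in 96-well plates underlies each endpoint, interpolated linearly between surrounding concentrations. GI50 marks 50% less growth. The concentration for full growth arrest is given as TGI.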
What was measured:
Experiment in all cases: inhibition of tumour cell growth, NCI panel, 48 h
NCI-H522 lung = system: NCI-H522 lung
M14 melanoma = system: M14 melanoma
HCT-15 colon = system: HCT-15 colon
SF-268 CNS = system: SF-268 CNS
LOX IMVI melanoma = system: LOX IMVI melanoma
CCRF-CEM leukemia = system: CCRF-CEM leukemia
HOP-92 NSCLC = system: HOP-92 NSCLC
SNB-19 CNS = system: SNB-19 CNS
MDA-MB-435 = system: MDA-MB-435
MCF7 breast = system: MCF7 breast

Structure (SMILES) | TGI (NCI-H522 lung) [µM] | TGI (M14 melanoma) [µM] | TGI (HCT-15 colon) [µM] | TGI (SF-268 CNS) [µM] | TGI (LOX IMVI melanoma) [µM] | TGI (CCRF-CEM leukemia) [µM] | TGI (HOP-92 NSCLC) [µM] | TGI (SNB-19 CNS) [µM] | GI50 (NCI-H522 lung) [µM] | GI50 (M14 melanoma) [µM] | GI50 (HCT-15 colon) [µM] | GI50 (LOX IMVI melanoma) [µM] | GI50 (CCRF-CEM leukemia) [µM] | GI50 (HOP-92 NSCLC) [µM] | GI50 (SNB-19 CNS) [µM] | GI50 (MDA-MB-435) [µM] | TGI (MDA-MB-435) [µM] | GI50 (SF-268 CNS) [µM] | GI50 (MCF7 breast) [µM] | TGI (MCF7 breast) [µM]
COc1cc(C(Cc2ccccc2)NC(C)=O)oc(=O)c1 (centres undefined) | > 100 | > 100 | > 100 | > 100 | > 100 | > 100 | > 100 | > 100 |  |  |  |  |  |  |  |  |  |  |  | 
CCC[CH2][Sn]1([CH2]CCC)[O]N=C(c2ccccc2)C(c2ccccc2)[O]1 (centres undefined) | 1.47 | 3.09 | 2.77 |  | 2.86 | 2.42 | 2.96 | 5.04 | 0.362 | 1.63 | 1.46 | 1.38 | 0.29 | 1.54 | 2.14 |  |  |  |  | 
CCCN=C(N)NC#N | > 100 | > 100 | 38.2 | > 100 |  |  | > 100 | > 100 |  |  |  |  |  |  |  |  |  |  |  | 
COc1cccc(/C=C/c2cc(OC)c(OC)c(OC)c2)c1 | > 100 | > 100 | > 100 | > 100 |  | > 100 | > 100 | > 100 |  |  |  |  |  |  |  |  |  |  |  | 
CCCCCCCCCCCCCC1=NC(C)(C)CN1C(C)C | 2.97 | 3.09 | 2.59 | 3.14 |  | 3.43 | 2.19 | 3.18 | 1.58 | 1.72 | 1.32 |  | 1.54 | 0.655 | 1.79 | 1.51 | 3.08 | 1.76 | 1.67 | 3.13
COc1cc2nc(-c3ccc(Cl)cc3)cc(OCCCN3CCCCC3)c2cc1OC | > 100 | 1.67 | > 100 | > 100 |  | > 100 | 6.24 | > 100 | 3.28 | 0.412 | 0.604 |  | 2.79 | 1.02 | 2.98 |  |  | 3.2 | 1.55 | 4.11
C=CCCCCC/C=C\[C@H](O)C#CC#C/C=C/CO | 45.4 | > 100 | > 100 | 70.5 | 29.9 |  | > 100 | > 100 | 19.3 | 86.2 | 30 | 16.4 |  | 52.8 | > 100 | 39.8 | > 100 | 24.5 | 38.5 | > 100
[Cl][Hg][c]1cc(Br)cc(Br)c1 | 2.27 | 6.32 | 3.22 | 4.28 | 2.86 | 4.22 | 3.45 | 2.51 | 0.493 | 2.12 | 1.6 | 1.41 | 1.32 | 1.7 | 1.2 | 1.8 | 3.82 | 1.76 |  | 
Cc1cc(CC(O)c2ccc(Cl)c(Cl)c2)nc(=O)[nH]1 (centres undefined) | 69.9 | > 100 | > 100 | > 100 |  | > 100 | 49.5 | > 100 |  |  |  |  |  |  |  |  |  |  |  | 
O=S1(=O)C[C@H](O)[C@H](O)CS1 | > 100 | > 100 |  | > 100 | > 100 |  | > 100 | > 100 |  |  |  |  |  |  |  |  |  |  |  | 
NNC(=S)N/N=C(\CC1OC(=O)c2ccccc21)c1ccccc1O (centres undefined) | 83.8 | > 100 | > 100 | > 100 | 32.6 | > 100 | > 100 | > 100 |  |  |  |  |  |  |  |  |  |  |  | 
CC(C)=CCNc1ncnc2c1ncn2C1OC(CO)C(O)C1O (centres undefined) |  | > 766 | 36.8 | > 432 | 1.5 | 3.17 | 3.99 | > 201 |  | 2.85 | 1.05 | 0.353 | 0.456 | 1.14 | 3.81 | 3.26 | > 1000 | 2 | 0.624 | 12.3
CN(C)N=Nc1ccc(NC=O)cc1 |  | > 100 | > 100 |  | > 100 | > 100 | > 100 | > 100 |  |  |  |  |  |  |  |  | > 100 |  |  | > 100
COC(=O)C1=C(O)c2cc(OC)c(OC)cc2C(c2ccc(OC)c(OC)c2)C1 (centres undefined) |  | > 100 | > 100 | > 100 | > 100 | > 100 | > 100 |  |  |  |  |  |  |  |  |  |  |  |  | 
C=C(CNCc1ccccc1)c1ccc(C(=O)Nc2ccccc2N)cc1 | 6.01 | > 100 | > 100 | 45.6 | 8.88 |  | 55.9 | 78.5 | 1.78 | 29.8 | 36.5 | 2.45 |  | 15.1 | 16.4 | 5.24 | 27.7 | 7.43 | 41.1 | > 100
COC1(OC)CC2C(=O)N(Cc3ccccc3)C1C(S(=O)(=O)c1ccccc1)C2S(=O)(=O)c1ccccc1 (centres undefined) | 5.12 | 28.5 | 14.8 | 29.3 | 21.8 | 13.7 | 34 | > 100 |  |  |  |  |  |  |  |  |  |  |  | 
O=C(O)CCC(=O)c1ccc[nH]1 | > 100 | > 100 | > 100 | > 100 | > 100 |  | > 100 | > 100 |  |  |  |  |  |  |  |  | > 100 |  |  | > 100
CCCCC(C(=O)C(=O)NC1C2CC3CC(C2)CC1C3)C(=O)C(C)C (centres undefined) | > 100 | > 100 | > 100 | > 100 | > 100 | > 100 | > 100 | > 100 |  |  |  |  |  |  |  |  |  |  |  | 
Cc1nn(-c2ccccc2)c2nc(N3CCOCC3)nnc12 |  | > 100 | > 100 | > 100 | > 100 | > 100 |  | > 100 |  |  |  |  |  |  |  |  |  |  |  | 
CN(C)c1nc2ccccc2[nH]1 | > 100 | > 100 | > 100 | > 100 | > 100 | > 100 | > 100 |  |  |  |  |  |  |  |  |  |  |  |  | 
